Counter-ions that a name gives are not always drawn. Like-named read-outs stand apart in the source and are kept apart here.
What was measured:
FKBP = FKBP (Homo sapiens, UniProt P62942); experiment: PPIase Inhibition Assay; assay type: biochemical
How it was run: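 Rates from p-nitroaniline release at 390 nm over 90 sec, fitted first-order, were converted to % activity remaining relative to uncatalyzed and uninhibited rates, with IC50 from linear regression of V-/V+ against inhibitor level. FKBP acted on Suc-Ala-Phe-Pro-Phe-pNA with excess chymotrypsin, HEPES pH 7.8, cold buffer.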

human T-cells = experiment: Suppression of Human T-Cell Proliferation Assay (PHA-stimulated, [3H]-thymidine incorporation); assay type: cell-based; settings: read-out: IC50
How it was run: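 Read-out is scintillation counting of [3H]-thymidine pulsed for the last 6 h of a 72 h, 37° C culture. Human T-cells, isolated from LeukoPaks by Lymphoprep and sheep-erythrocyte rosetting, were PHA-M activated (40 μg/ml stock) with compound dilutions added in duplicate wells.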

NF-AT = NF-AT Inhibition Assay Directed β-Galactosidase Expression in FGL-5 cells; assay type: cell-based
How it was run: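 FGL-5 Jurkat cells (3 million cells/ml) carry NF-AT-site-driven lacZ. They were stimulated with phorbol dibutyrate plus ionomycin and incubated with compound 16-18 h at 37 °C, in duplicate wells with matched ethanol or DMSO vehicle controls. β-Galactosidase was read as fluorescence from 4-methylumbelliferyl-β-D-galactoside cleavage, giving percent inhibition.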

[1] = concentration of inhibitor required for 50% inhibition of enzyme activity, FKBP, substrate Succinyl-Ala-Phe-Pro-Phe-para-nitroanilide, TABLE I
[2] = concentration inhibiting [3H]-thymidine incorporation of PHA-stimulated T-cells by 50%, 72 hours, TABLE 2
[3] = 50% inhibition of NF-AT directed β-galactosidase activity in FGL-5 cells stimulated with phorbol dibutyrate and ionomycin, TABLE 3

Sequence of FKBP (P62942 whole entry): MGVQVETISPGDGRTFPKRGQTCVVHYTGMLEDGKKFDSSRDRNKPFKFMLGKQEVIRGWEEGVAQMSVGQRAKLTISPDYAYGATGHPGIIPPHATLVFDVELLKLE

IC50 (FKBP; [1]) [µM] | IC50 (NF-AT; [3]) [µM] | SMILES | IC50 (human T-cells; [2]) [µM] | IC50 (FKBP) [µM] | IC50 (human T-cells) [µM] | IC50 (NF-AT) [µM]
> 5 | > 15 | COc1cc(C(=O)CN2CCC[C@H]2C(=O)NCC(=O)c2ccccc2)cc(OC)c1OC [Example 127, L-Proline, 1-[2-(3,4,5-Trimethoxyphenyl)-2-Oxoethyl] 2-Phenyl-2-oxoethylamide] | > 15 | – | – | –
< 5 | 14 | CC[C@H](C)[C@H](NC(=O)[C@@H]1CCCN1CC(=O)C1(c2ccccc2)CCCCC1)C(=O)NCc1ccccc1 [Example 116, L-Isoleucine, N-[1-(2-(1-Phenylcyclohexyl)-2-Oxoethyl)-L-Prolyl] Benzylamide] | 6 | – | – | –
0.4 | 18 | CCCC[C@H](NC(=O)[C@@H]1CCCN1CC(=O)C12CC3CC(CC(C3)C1)C2)C(=O)NCc1ccccc1 [Example 60, L-Norleucine, N-[1-(2-Adamantan-1-yl-2-Oxoethyl)-L-Prolyl] Benzylamide] | 16 | – | – | –
> 5 | > 15 | CC[C@H](C)[C@H](NC(=O)[C@@H]1CCCN1CC(=O)c1ccc(OC)c(OC)c1OC)C(=O)NCc1ccccc1 [Example 115, L-Isoleucine, N-[1-(2-(2,3,4-Trimethoxyphenyl)-2-Oxoethyl)-L-Prolyl] Benzylamide] | 7 | – | – | –
< 5 | > 33 | CC[C@H](C)[C@H](NC(=O)[C@@H]1CCCN1CC(=O)c1cc(OC)c(OC)c(OC)c1)C(=O)NCc1ccccc1 [Example 98, L-Isoleucine, N-[1-(2-(3,4,5-Trimethoxyphenyl)-2-Oxoethyl)-L-Prolyl] Benzylamide] | 7 | – | – | –
1.2 | 73 | CC(C)[C@H](NC(=O)[C@@H]1CCCN1CC(=O)C12CC3CC(CC(C3)C1)C2)C(=O)NCc1ccccc1 [Example 56, L-Valine, N-[1-(2-Adamantan-1-yl-2-Oxoethyl)-L-Prolyl] Benzylamide] | 8 | – | – | –
> 5 | > 15 | COc1cc(C(=O)CN2CCC[C@H]2C(=O)NCCCc2ccccc2)cc(OC)c1OC [Example 122, L-Proline, 1-[2-(3,4,5-Trimethoxyphenyl)-2-Oxoethyl] 3-Phenylpropylamide Hydrochloride] | 8 | – | – | –
< 5 | 13 | CC[C@H](C)[C@H](NC(=O)[C@@H]1CCCN1CC(=O)OCC=C(C)c1ccccc1)C(=O)NCc1ccccc1 [Example 85, L-Isoleucine, N-[1-(2-(3-Phenyl-3-Methyl-2-Propen-1-Oxy)-2-Oxoethyl)-L-Prolyl] Benzylamide] | 22 | – | – | –
> 5 | 3 | C=CCOC(=O)Nc1ccc(CCCOC(=O)[C@@H]2CCCCN2CC(=O)c2cc(OC)c(OC)c(OC)c2)cc1 [Example 159, L-Homoproline, 1-[2-(3,4,5-Trimethoxyphenyl)-2-Oxoethyl] 3-(4-(N-Carboallyloxy)aminophenyl)propyl Ester Hydrochloride] | 10 | – | – | –
> 5 | > 15 | COc1cc(C(=O)CN2CCC[C@H]2C(=O)NCC2CCCO2)cc(OC)c1OC (stereo partly drawn) [Example 128, L-Proline, 1-[2-(3,4,5-Trimethoxyphenyl)-2-Oxoethyl] Tetrahydrofurfurylamide] | 4 | – | – | –
< 5 | > 15 | CC[C@H](C)[C@H](NC(=O)[C@@H]1CCCN1CC(=O)c1cccc(Oc2ccccc2)c1)C(=O)NCc1ccccc1 [Example 104, L-Isoleucine, N-[1-(2-(3-Phenoxyphenyl)-2-Oxoethyl)-L-Prolyl] Benzylamide] | > 15 | – | – | –
0.71 | > 100 | CCC[C@H](NC(=O)[C@@H]1CCCN1CC(=O)C12CC3CC(CC(C3)C1)C2)C(=O)NCc1ccccc1 [Example 59, L-Norvaline, N-[1-(2-Adamantan-1-yl-2-Oxoethyl)-L-Prolyl] Benzylamide] | 10 | – | – | –
< 5 | > 15 | CC[C@H](C)[C@H](NC(=O)[C@@H]1CCCN1CC(=O)c1c(OC)cccc1OC)C(=O)NCc1ccccc1 [Example 112, L-Isoleucine, N-[1-(2-(2,6-Dimethoxyphenyl)-2-Oxoethyl)-L-Prolyl] Benzylamide] | 7 | – | – | –
> 5 | 12 | CC[C@H](C)[C@H](NC(=O)[C@@H]1CCCN1CC(=O)OCC=C(C)CCC=C(C)CCC=C(C)C)C(=O)NCc1ccccc1 [Example 83, L-Isoleucine, N-[1-(2-[1-(3,7,11-Trimethyldodeca-2,6,10-trien-1-ol)]-2-Oxoethyl)-L-Proline] Benzylamide] | 7 | – | – | –
< 5 | > 15 | CC[C@H](C)[C@H](NC(=O)[C@@H]1CCCN1CC(=O)c1c(OC)cc(OC)cc1OC)C(=O)NCc1ccccc1 [Example 110, L-Isoleucine, N-[1-(2-(2,4,6-Trimethoxyphenyl)-2-Oxoethyl)-L-Prolyl] Benzylamide] | 6 | – | – | –
> 5 | > 15 | COc1cc(C(=O)CN2CCCC[C@H]2C(=O)NCC2CCCO2)cc(OC)c1OC (stereo partly drawn) [Example 148, L-Homoproline, 1-[2-(3,4,5-Trimethoxyphenyl)-2-Oxoethyl] tetrahydrofurfurylamide] | > 15 | – | – | –
< 5 | > 33 | CC[C@H](C)[C@H](NC(=O)[C@@H]1CCCN1CC(=O)C12CC3CC(CC1C3)C2)C(=O)NCc1ccccc1 [Example 45, L-Isoleucine, N-[1-(2-Oxo-2-Tricyclo[3.3.1.0 ^3,7]Non-3-yl-Ethyl)-L-Prolyl] Benzylamide] | 20 | – | – | –
> 5 | > 33 | COc1cc(C(=O)CN2CCC[C@H]2C(=O)NCC2CCCCC2)cc(OC)c1OC [Example 141, L-Proline, 1-[2-(3,4,5-Trimethoxylphenyl)-2-Oxoethyl] Cyclohexylmethylamide] | 7 | – | – | –
> 5 | > 15 | COc1cc(C(=O)CN2CCC[C@H]2C(=O)NCc2cccc3ccccc23)cc(OC)c1OC [Example 129, L-Proline, 1-[2-(3,4,5-Trimethoxyphenyl)-2-Oxoethyl] Naphthalen-1-ylmethylamide] | 10 | – | – | –
> 5 | > 15 | COc1cc(C(=O)CN2CCCC[C@H]2C(=O)N[C@@H](C)c2ccccc2)cc(OC)c1OC [Example 150, L-Homoproline, 1-[2-(3,4,5-Trimethoxyphenyl)-2-Oxoethyl] (S)-α-methylbenzylamide Hydrochloride] | > 15 | – | – | –
> 5 | > 15 | COc1cc(C(=O)CN2CCCC[C@H]2C(=O)NCc2ccccc2)cc(OC)c1OC [Example 146, L-Homoproline, 1-[2-(3,4,5-Trimethoxyphenyl)-2-Oxoethyl] Benzylamide Hydrochloride] | > 15 | – | – | –
> 5 | > 15 | COc1cc(C(=O)CN2CCC[C@H]2C(=O)NCCc2ccc(S(N)(=O)=O)cc2)cc(OC)c1OC [Example 130, L-Proline, 1-[2-(3,4,5-Trimethoxyphenyl)-2-Oxoethyl] 2-(4-Sulfamoylphenyl)ethylamide] | 4 | – | – | –
> 5 | > 33 | COc1cc(C(=O)CN2CCC[C@H]2C(=O)N[C@H](C)c2ccccc2)cc(OC)c1OC [Example 137, L-Proline, 1-[2-(3,4,5-Trimethoxyphenyl)-2-Oxoethyl] (R)-α-methylbenzylamide Hydrochloride] | 16 | – | – | –
0.12 | 5 | CC[C@H](C)[C@H](NC(=O)[C@@H]1CCCN1CC(=O)OC1(C)C2CC3CC(C2)CC1C3)C(=O)NCc1ccccc1 (stereo partly drawn) [Example 89, L-Isoleucine, N-[1-(2-(2-Oxy-2-Methyladamant-2-yl)-2-Oxoethyl)-L-Prolyl] Benzylamide] | 8 | – | – | –
> 5 | > 15 | COc1cc(C(=O)CN2CCC[C@H]2C(=O)NCCc2ccccn2)cc(OC)c1OC [Example 124, L-Proline, 1-[2-(3,4,5-Trimethoxyphenyl)-2-Oxoethyl] 2-(Pyrid-2-yl)ethylamide Dihydrochloride] | > 15 | – | – | –
– | – | CC[C@H](C)[C@H](NC(=O)[C@@H]1CCCN1CC(=O)C1CCC2CCCC21)C(=O)NCc1ccccc1 (relative stereo) [Example 40] | – | < 5 | 17 | 19
< 5 | 13 | CC[C@H](C)[C@H](NC(=O)[C@@H]1CCCN1CC(=O)OC(CN1CCOCC1)c1ccccc1)C(=O)NCc1ccccc1 (stereo partly drawn) [Example 88, L-Isoleucine, N-[1-(2-(1-Phenyl-2-(4-Morpholino)Ethoxy)-2-Oxoethyl)-L-Prolyl] Benzylamide] | 16 | – | – | –
< 5 | > 15 | CC[C@H](C)[C@H](NC(=O)[C@@H]1CCCN1CC(=O)C1(c2ccc(C)cc2)CCCCC1)C(=O)NCc1ccccc1 [Example 113, L-Isoleucine, N-[1-(2-(1-(4-Methylphenyl)cyclohexyl)-2-Oxoethyl)-L-Prolyl] Benzylamide] | 8 | – | – | –
2.3 | 20 | O=C(NCc1ccccc1)[C@H](Cc1ccccc1)NC(=O)[C@@H]1CCCN1CC(=O)C12CC3CC(CC(C3)C1)C2 [Example 58, L-Phenylalanine, N-[1-(2-Adamantan-1-yl-2-Oxoethyl)-L-Prolyl] Benzylamide] | 7 | – | – | –

From patent publication US5686424A, “2-oxoethyl derivatives as immunosuppressants” (Miles Inc., priority 1995, dated 1997)
